Assay results reported in publication PMC6199744, “Development of Chemical Proteomics for the Folateome and Analysis of the Kinetoplastid Folateome” (ACS Infectious Diseases, 2018).
Read-outs that look alike come from different tables or passages of the source.

Legend:
Format in all cases: binding
[1] = target: T1, HeLa cell extract proteins (Homo sapiens, UniProt Q6JQN1)
T1 construct: endogenous in cells; host or cells: HeLa cell extract
T1 sequence (Q6JQN1 1-1059): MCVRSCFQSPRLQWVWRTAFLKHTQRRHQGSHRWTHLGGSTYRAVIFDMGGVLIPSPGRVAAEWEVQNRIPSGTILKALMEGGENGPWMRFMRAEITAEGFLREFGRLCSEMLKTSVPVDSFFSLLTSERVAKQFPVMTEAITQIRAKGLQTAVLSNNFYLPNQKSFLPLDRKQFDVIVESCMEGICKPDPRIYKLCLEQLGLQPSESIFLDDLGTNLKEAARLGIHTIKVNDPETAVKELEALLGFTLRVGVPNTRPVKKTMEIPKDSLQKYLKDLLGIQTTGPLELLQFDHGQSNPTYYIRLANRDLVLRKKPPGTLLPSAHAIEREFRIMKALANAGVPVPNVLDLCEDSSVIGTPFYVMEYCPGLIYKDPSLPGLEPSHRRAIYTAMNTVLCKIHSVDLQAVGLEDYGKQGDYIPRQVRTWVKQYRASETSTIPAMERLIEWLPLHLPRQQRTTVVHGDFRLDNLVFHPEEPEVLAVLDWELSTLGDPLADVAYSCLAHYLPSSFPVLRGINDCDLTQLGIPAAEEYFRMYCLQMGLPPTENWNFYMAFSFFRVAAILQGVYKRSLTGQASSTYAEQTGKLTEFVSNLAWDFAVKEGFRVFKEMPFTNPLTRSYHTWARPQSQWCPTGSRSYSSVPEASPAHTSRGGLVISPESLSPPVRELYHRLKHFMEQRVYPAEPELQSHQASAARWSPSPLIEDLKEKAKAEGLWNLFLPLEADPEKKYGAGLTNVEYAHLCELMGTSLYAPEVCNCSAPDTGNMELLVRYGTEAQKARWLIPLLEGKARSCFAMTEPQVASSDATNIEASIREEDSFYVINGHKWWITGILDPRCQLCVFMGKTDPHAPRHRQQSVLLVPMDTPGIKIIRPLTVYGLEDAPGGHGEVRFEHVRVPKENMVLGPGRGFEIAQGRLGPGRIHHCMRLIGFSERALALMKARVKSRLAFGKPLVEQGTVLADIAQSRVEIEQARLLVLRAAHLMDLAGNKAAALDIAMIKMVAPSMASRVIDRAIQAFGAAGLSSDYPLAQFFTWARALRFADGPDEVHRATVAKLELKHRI

[2] = target: T2, HeLa cell extract proteins (Homo sapiens, UniProt P28074)
T2 construct: endogenous in cells; host or cells: HeLa cell extract
T2 sequence (P28074 60-263): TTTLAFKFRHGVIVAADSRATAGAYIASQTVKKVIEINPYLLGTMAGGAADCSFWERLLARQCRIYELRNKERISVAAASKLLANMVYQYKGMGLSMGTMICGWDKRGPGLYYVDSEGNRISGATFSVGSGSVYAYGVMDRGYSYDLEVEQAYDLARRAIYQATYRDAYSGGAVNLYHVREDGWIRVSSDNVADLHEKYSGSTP

[3] = target: T3, HeLa cell extract proteins (Homo sapiens, UniProt Q13200)
T3 construct: endogenous in cells; host or cells: HeLa cell extract

[4] = target: T4, HeLa cell extract proteins (Homo sapiens, UniProt Q99832)
T4 construct: endogenous in cells; host or cells: HeLa cell extract
T4 sequence (Q99832 1-543): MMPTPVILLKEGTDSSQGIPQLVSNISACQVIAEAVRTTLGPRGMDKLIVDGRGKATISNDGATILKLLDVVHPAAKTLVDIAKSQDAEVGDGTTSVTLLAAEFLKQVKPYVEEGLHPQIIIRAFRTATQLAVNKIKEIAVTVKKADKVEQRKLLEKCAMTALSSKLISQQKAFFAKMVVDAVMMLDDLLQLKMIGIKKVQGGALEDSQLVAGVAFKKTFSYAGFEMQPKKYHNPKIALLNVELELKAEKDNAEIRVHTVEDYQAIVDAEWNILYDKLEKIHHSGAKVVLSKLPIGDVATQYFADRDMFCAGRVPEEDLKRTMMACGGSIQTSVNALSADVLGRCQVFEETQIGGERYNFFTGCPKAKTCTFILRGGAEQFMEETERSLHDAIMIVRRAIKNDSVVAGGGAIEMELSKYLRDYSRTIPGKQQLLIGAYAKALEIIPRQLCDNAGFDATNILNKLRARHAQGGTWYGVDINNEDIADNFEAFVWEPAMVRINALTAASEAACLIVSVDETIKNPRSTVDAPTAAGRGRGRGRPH

[5] = target: T5, HeLa cell extract proteins (Homo sapiens, UniProt P50416)
T5 construct: endogenous in cells; host or cells: HeLa cell extract
T5 sequence (P50416 1-773): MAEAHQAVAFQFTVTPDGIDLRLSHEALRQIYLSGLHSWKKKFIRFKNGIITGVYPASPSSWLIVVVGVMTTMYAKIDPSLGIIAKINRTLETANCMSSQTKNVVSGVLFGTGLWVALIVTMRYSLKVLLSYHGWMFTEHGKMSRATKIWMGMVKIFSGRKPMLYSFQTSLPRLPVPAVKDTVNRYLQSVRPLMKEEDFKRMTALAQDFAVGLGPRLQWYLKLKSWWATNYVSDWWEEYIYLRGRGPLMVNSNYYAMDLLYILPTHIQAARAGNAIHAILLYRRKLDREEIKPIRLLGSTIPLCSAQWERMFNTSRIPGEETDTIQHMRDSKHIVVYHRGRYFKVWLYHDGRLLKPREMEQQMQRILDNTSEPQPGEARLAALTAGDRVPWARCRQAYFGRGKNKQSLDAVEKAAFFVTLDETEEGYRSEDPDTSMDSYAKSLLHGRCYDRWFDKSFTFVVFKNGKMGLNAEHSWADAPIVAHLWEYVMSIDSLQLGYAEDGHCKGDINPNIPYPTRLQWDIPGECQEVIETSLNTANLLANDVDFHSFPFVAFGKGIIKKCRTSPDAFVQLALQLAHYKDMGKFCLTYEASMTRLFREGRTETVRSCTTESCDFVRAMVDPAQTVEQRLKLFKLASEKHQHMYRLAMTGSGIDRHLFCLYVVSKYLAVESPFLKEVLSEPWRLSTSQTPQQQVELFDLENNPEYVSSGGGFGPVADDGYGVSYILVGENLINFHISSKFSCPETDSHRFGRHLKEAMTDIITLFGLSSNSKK

[6] = target: T6, HeLa cell extract proteins (Homo sapiens, UniProt P48651)
T6 construct: endogenous in cells; host or cells: HeLa cell extract

T3 sequence (Q13200 whole entry): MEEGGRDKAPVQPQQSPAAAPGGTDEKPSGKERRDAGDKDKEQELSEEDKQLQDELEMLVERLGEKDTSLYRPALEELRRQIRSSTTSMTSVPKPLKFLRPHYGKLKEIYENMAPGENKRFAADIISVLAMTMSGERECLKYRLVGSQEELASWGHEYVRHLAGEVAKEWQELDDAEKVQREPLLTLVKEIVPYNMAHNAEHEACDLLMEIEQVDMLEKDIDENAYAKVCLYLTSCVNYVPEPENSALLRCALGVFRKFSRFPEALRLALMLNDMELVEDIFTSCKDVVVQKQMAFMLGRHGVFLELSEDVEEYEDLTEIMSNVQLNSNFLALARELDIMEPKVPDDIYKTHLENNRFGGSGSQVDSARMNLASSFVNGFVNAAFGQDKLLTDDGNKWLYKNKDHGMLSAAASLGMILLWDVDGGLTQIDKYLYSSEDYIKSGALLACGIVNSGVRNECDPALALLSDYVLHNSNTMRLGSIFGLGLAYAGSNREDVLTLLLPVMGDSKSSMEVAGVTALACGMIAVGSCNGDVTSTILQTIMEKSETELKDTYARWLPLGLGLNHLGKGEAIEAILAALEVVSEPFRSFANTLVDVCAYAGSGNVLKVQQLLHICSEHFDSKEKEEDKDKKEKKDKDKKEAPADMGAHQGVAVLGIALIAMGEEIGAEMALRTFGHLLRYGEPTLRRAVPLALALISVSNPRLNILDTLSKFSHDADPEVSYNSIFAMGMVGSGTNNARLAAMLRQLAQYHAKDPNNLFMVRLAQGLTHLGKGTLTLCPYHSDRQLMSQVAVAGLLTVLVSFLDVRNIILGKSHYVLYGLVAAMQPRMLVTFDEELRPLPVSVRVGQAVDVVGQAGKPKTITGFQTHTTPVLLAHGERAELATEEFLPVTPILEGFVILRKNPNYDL

Structure (SMILES) | fold changes relative to vehicle control ([1]; captured protein ACAD10, HeLa) | fold changes relative to vehicle control ([2]; protein PSMB5, HeLa) | fold changes relative to vehicle control ([3]; protein PSMD2, HeLa) | fold changes relative to vehicle control ([4]; protein CCT7, HeLa) | fold changes relative to vehicle control ([5]; captured protein CPT1A, HeLa) | fold changes relative to vehicle control ([6]; captured protein PTDSS1, HeLa) | fold changes relative to vehicle control ([1]; protein ACAD10, HeLa) | fold changes relative to vehicle control ([2]; HeLa, protein PSMB5) | fold changes relative to vehicle control ([4]; HeLa, protein CCT7) | fold changes relative to vehicle control ([5]; HeLa, protein CPT1A) | fold changes relative to vehicle control ([6]; HeLa, protein PTDSS1) | fold changes relative to vehicle control [1] | fold changes relative to vehicle control [2] | fold changes relative to vehicle control [3] | fold changes relative to vehicle control [4] | fold changes relative to vehicle control [5] | fold changes relative to vehicle control [6]
Nc1nc2cccc(-c3ccccc3)c2n1Cc1ccc(Cl)c(Cl)c1 [compound 3] | 0.94 | 0.95 | 1.01 | 0.98 | 0.95 | 0.77 | – | – | – | – | – | – | – | – | – | – | –
NCCOCCOCC(=O)Nc1nc2ncc(CNc3ccc(C(=O)NC(CCC(=O)O)C(=O)O)cc3)nc2c(=O)[nH]1 (stereo not drawn) [compound 6] | – | – | 1.01 | – | – | – | 0.76 | 1.05 | 1.2 | 1.01 | 0.89 | – | – | – | – | – | –
Nc1nc2[nH]cc(CCc3ccc(C(=O)N[C@@H](CCC(=O)O)C(=O)O)cc3)c2c(=O)[nH]1 [PTX, pemetrexed] | – | – | – | – | – | – | – | – | – | – | – | 0.71 | 1 | 0.83 | 1.01 | 0.84 | 0.8
Nc1nc2c(c(=O)[nH]1)N(C=O)C(CNc1ccc(C(=O)N[C@@H](CCC(=O)O)C(=O)O)cc1)CN2 (stereo partly drawn) [LEU, leucovorin] | – | – | 0.84 | – | – | – | 0.96 | 0.97 | 1.01 | 0.88 | 0.84 | – | – | – | – | – | –
CCCCCCOc1ccc(Cc2cnc(N)nc2N)cc1 [compound 1] | 0.84 | 1.11 | 0.98 | 1.08 | 0.9 | 0.68 | – | – | – | – | – | – | – | – | – | – | –
NCCCNc1ccc(C(=O)NC(CCC(=O)O)C(=O)O)cc1 (stereo not drawn) [compound 7] | – | – | 0.99 | – | – | – | 0.95 | 1 | 1.11 | 0.99 | 0.96 | – | – | – | – | – | –
CCCCCCOc1cccc(Cc2cnc(N)nc2N)c1 [compound 2] | 0.84 | 1.24 | 1.41 | 1.62 | 1.04 | 1.03 | – | – | – | – | – | – | – | – | – | – | –
